# Data reported in US4073938A, “19,20-Bis-nor-prostenoic acids as hypolipemic compounds” (Istituto Biochimico Italiano di Loredana Lorenzini S.a.s., priority 1974, dated 1978).
# Structures can show the parent of a compound that is named as a salt.
# Key:
# [1] = LD50 by mouth in the mouse; format: in vivo; settings: in vivo, po
# Description: (§1) a. LD50 by mouth in the mouse about 3000 mg/kg
# (§2) 25 gr of XVI are dissolved in 400 ml of water with NaOH 15% to pH 9, filtered and lyophilized : 24 gr of sodium salt of XVI as a white solid are obtained, humidity (K. Fisher) 2.08%, no U.V. absorption, equivalent weight found 301.7, I.R. bands at 3400, 1765, 1565, 1460, 1420, 1378 cm^-1.
# (§3) After 20 hours at 20°, the solvent is evaporated in vacuo, the residue is dissolved in 1300 ml of water treated with 120 ml of acetic acid, extracted with chloroform. After solvent evaporation, 65.1 gr of the compound XVIII are obtained, as an oil, I.R. bands at 3420, 3100, 1710 cm^-1. 35 gr of the compound XVIII are dissolved in 600 ml of water with NaOH to pH 9. The solution is filtered and lyophilized: 35.5 gr of sodium salt of 9-hydroxy-19,20-bis-nor-prostanoic acid are obtained, as white solid, humidity (K.Fisher) 1.73%, no U.V. absorption, equivalent weight found 320, I.R. bands at 3400, 3300, 1565, 1460, 1390 cm^-1, LD50 by mouth in mice about 3000 mg/kg.
# mouse = assay: LD50 by mouth in the mouse; format: in vivo
# Description: as §1, §2, §3
# [2] = Coagulation test (Time of Quick, Time of Howel); format: in vivo, Male Sprague-Dawley rats; settings: 200 mg/kg endoperitoneal, 2 hours before
# Description: c. Coagulation test: minutes/10 ± E.S.
# Coagulation test (Repetition): minutes/100 ± E.S.
# Treatment with the dose of 200 mg/kg endoperitoneal, 2 hours before the test.
# Male Sprague-Dawley rate 150 gr.
# [3] = Deepness and rapidity test (untitled table 6); format: in vivo, Male Sprague-Dawley rats; settings: 200 mg/kg endoperitoneal; for Rapidity ± E.S.: controls 3.4 ± 0.3; for Deepness (mm ± E.S.): controls 74.9 ± 6.2
# Description: | Treatment with the dose of 200 mg/kg endoperitoneal, one or two hours | before sacrifice. Male Sprague-Dawley rats with an average weight of 150 | gr.
# [4] = Triglyceridemia and cholesterolemia in rats given alcohol 10%; format: in vivo, Male Sprague-Dawley rats; settings: 1 week endoperitoneal once daily (CPIB, BBA 200 mg/kg; C83 50 mg/kg)
# Description: | Treatment for 1 week CPIB - BBA - 200 mg/kg endoperitoneal; C83 | 50mg/kg endoperitoneal; only one daily administration. | Male Sprague-Dawley rats 150 gr. | Groups of 6 rats.
# [5] = Triglycerides and cholesterol in rats on Nath diet, endoperitoneal or by mouth; format: in vivo, male Sprague-Dawley rats; settings: 1 week
# Description: Treatment with 25 mg/kg/die for 1 week on male Sprague-Dawley rats of 150
# [6] = Triglycerides and cholesterol in rats on Nath diet, 25 and 50 mg/kg endoperitoneal; format: in vivo, male Sprague-Dawley rats; settings: 1 week
# Description: Treatment with 25 and 50 mg/kg/die endoperitoneal for 1 week on male
# Sprague-Dawley rats of 150 gr.
# [7] = test system: smooth musculature (trachea of guinea-pig, fundal end stomach of rat, uterus of rat, portal vein of rat); assay: General pharmacology: prostaglandino-similar activity on smooth muscle preparations; settings: 100 μg/ml
# Description: The compound C83 has been tested pharmacologically in order to show a probable prostaglandino-similar activity.
# The compound C83 has been studied on the above parameters:
# 1. Trachea of guinea-pig.
# 2. Strips of fundal end stomach of rat.
# 5. Cardiovascular effects.
# This compound has been tested at the concentration of 100 μg/ml in all preparations above mentioned.
# ulcer induced by aspirin = assay: Anti-ulcerous activity, ulcer from aspirin (9-hydroxy sodium salt); format: in vivo, Female rats of the Wistar stock; settings: for Ulcer scale (x ± Sx): controls 18.67 ± 3.11
# Description: (§4) Also in this case the anti-ulcerous activity is tested on an ulcer induced by aspirin and by phenylbutazone. In both cases lesions of various sizes are formed in the glandular section of the stomach.
# Female rats of the Wistar stock weighing 150-175 g are used. 24 hours before the start of the test the animals are made to fast, while they are allowed water at will.
# Each test group consists of 12 animals. The aspirin is administered orally as a suspension (45 mg/ml of 0.5% carboxymethyl cellulose suspension, 1 ml per animal). The substance in question is administered 10 minutes before the administration of aspirin, and 21/2 hours after, each time in doses of […] of 100 mg/kg × 10 ml of distilled water. The animals are killed 5 hours after the administration of aspirin, the stomachs are extracted and with a stereomicroscope the number and size of the lesions is evaluated.
# [8] = test system: ulcer induced by phenylbutazone; assay: Anti-ulcerous activity, ulcer from phenylbutazone (9-hydroxy sodium salt); format: in vivo, Female rats of the Wistar stock
# Description: as §4
# Female rats of the Wistar stock weighing 170 ± 180 g are again involved. The animals are held in constant ambient conditions for at least 2 weeks before the start of the test. 24 hours before the start of the test the animals are made to fast, while they are allowed water at will.
# Each test group consists of 10 animals. The substance in question is administered a first time 15 minutes before administration of phenylbutazone (200 mg/kg × 1 ml in 0.5% tragacanth gum solution orally), and a second time 21/2 hours after. The doses of the substance in question amount to 2.5, 10, 50, 100, 200 and respectively 400 mg/kg × 2 ml of 0.5% tragacanth gum solution, orally.
# 5 hours after the administration of phenylbutazone the animals are killed, the stomachs are extracted, fixed and with the aid of a stereomicroscope magnifying 8 times a point count evaluation is carried out. The lesions of the gastric mucosa are expressed in % of the stomach surface.
structure (smiles),measurement,setting,value
"CCCCCCC1CCC(O)C1CCCCCCC(=O)O (centres unmarked) [Compound C83, 9-hydroxy-19,20-bis-nor-prostanoic acid sodium salt]",LD50,[1],~3000 mg/kg
same,LD50,mouse,about 3000 mg/kg
same,Time of Quick (± E.S.),"[2]; controls 25.3 ± 0.2, p < 0.001",29.0 ± 0.4 minutes/10
same,Time of Howel (± E.S.),"[2]; controls 84.5 ± 1.6, p < 0.001",98.8 ± 0.9 minutes/10
same,Time of Quick (Repetition) (± E.S.),"[2]; repetition, controls 25.8 ± 0.4, p < 0.001",29.3 ± 0.3 minutes/100
same,Time of Howel (Repetition) (± E.S.),"[2]; repetition, controls 95.0 ± 1.5, p < 0.001",118.8 ± 2.4 minutes/100
same,Rapidity ± E.S.,[3]; 1 hour before sacrifice,1.6 ± 0.2
same,Deepness (mm ± E.S.),[3]; 1 hour before sacrifice,29.1 ± 3.6 mm
same,Rapidity ± E.S.,[3]; 2 hours before sacrifice,3.3 ± 0.7
same,Deepness (mm ± E.S.),[3]; 2 hours before sacrifice,67.3 ± 12.6 mm
same,Cholesterolemia,"[4]; controls 91.5 ± 6.6, alcohol 81.0 ± 4.6",56.3 ± 3.9
same,Triglyceridemia,"[4]; controls 97.8 ± 5.1, alcohol 169.0 ± 25.0",85.2 ± 13.5
same,triglycerides,"[5]; 25 mg/kg/die by mouth, Nath diet 134.9 ± 9.4, p<0.05 vs Nath diet",109.4 ± 6.9
same,cholesterol,"[5]; 25 mg/kg/die by mouth, Nath diet 333.3 ± 29.9",380.2 ± 77.8
same,cholesterol,"[5]; 25 mg/kg/die endoperitoneal, controls 72.6 ± 4.3, Nath diet 333.3 ± 29.9, p<0.001 vs Nath diet",168.3 ± 26.8
same,triglycerides,"[5]; 25 mg/kg/die endoperitoneal, controls 96.9 ± 9.4, Nath diet 134.9 ± 9.4, p<0.05 vs Nath diet",91.9 ± 16.3
same,cholesterol,"[6]; 25 mg/kg/die endoperitoneal, controls 64.4 ± 2.8, Nath diet 180.0 ± 15.8, p<0.01 vs Nath diet",108.3 ± 13.9
same,triglycerides,"[6]; 25 mg/kg/die endoperitoneal, controls 91.1 ± 13.5, Nath diet 135.2 ± 22.8",81.5 ± 13.3
same,triglycerides,"[6]; 50 mg/kg/die endoperitoneal, Nath diet 135.2 ± 22.8, p<0.01 vs Nath diet",49.1 ± 6.1
same,cholesterol,"[6]; 50 mg/kg/die endoperitoneal, Nath diet 180.0 ± 15.8, p<0.001 vs Nath diet",101.8 ± 4.4
same,action on smooth musculature,[7],clear prolonged action on muscle on the different kinds of smooth musculature
same,Ulcer scale (x ± Sx),"ulcer induced by aspirin; 2 × 10 mg/kg, p<0.001",4.83 ± 1.09
same,Ulcer scale (x ± Sx),"ulcer induced by aspirin; 2 × 100 mg/kg, p<0.05",8.92 ± 1.91
same,mitigation of ulcerating effect of aspirin (in words),ulcer induced by aspirin; both doses,considerably mitigates the ulcerating effect of aspirin
same,correlation between dose and inhibition of ulcer surface area (in words),[8]; FIG. 1,highly significant correlation between the dose and the inhibition of the surface area of the ulcer
same,ED50,"[8]; Rattus norvegicus, po, orally, calculated from the regression lines, read-out: DE 50 (inhibition of the surface area of the ulcer)",37 mg/kg
same,Surface area of the ulcer in % with respect to surface area of the stomach (x ± Sx),"[8]; orally, 2 × 2.5 mg/kg, controls 0.80 ± 3.26",0.57 ± 2.10%
same,Surface area of the ulcer in % with respect to surface area of the stomach (x ± Sx),"[8]; orally, 2 × 10 mg/kg, controls 3.60 ± 3.33",2.13 ± 2.22%
same,Surface area of the ulcer in % with respect to surface area of the stomach (x ± Sx),"[8]; orally, 2 × 25 mg/kg, controls 0.80 ± 3.26",0.33 ± 1.59%
same,Surface area of the ulcer in % with respect to surface area of the stomach (x ± Sx),"[8]; orally, 2 × 50 mg/kg, controls 3.57 ± 3.59",1.30 ± 1.74%
same,Surface area of the ulcer in % with respect to surface area of the stomach (x ± Sx),"[8]; orally, 2 × 100 mg/kg, controls 3.60 ± 3.33",1.97 ± 1.44%
same,Surface area of the ulcer in % with respect to surface area of the stomach (x ± Sx),"[8]; orally, 2 × 200 mg/kg, controls 3.57 ± 3.59, p<0.02",0.27 ± 0.53%
